According to patent US20260151389A1, “Use of Tetramethylpyrazine Nitrone Derivatives In The Treatment of Ischemic Stroke” (GUANGZHOU MAGPIE PHARMACEUTICALS CO., L.T.D., priority 2021, published 2026):

Tested on: patients with acute ischemic stroke
Assay: multicenter, randomized, double-blind, parallel clinical trial in acute ischemic stroke
Assay type: in vivo, human
Settings: for increase in percentage of patients with mRS 0-1 compared to the saline group: non-thrombolytic group, TBN 1400 mg iv twice a day for 7 days
Description: The present invention adopts a multicenter, randomized, double-blind, parallel trial clinical research design. The patients with acute ischemic stroke included in the clinical trial-center as subjects (all signed informed consent forms) were divided into non-thrombolytic group and thrombolytic group. The non-thrombolytic group consists of the saline group and the TBN group. The thrombolytic group consists of the t-PA group and the combination group of TBN+t-PA.
Subjects of the tests: Patients diagnosed with acute ischemic stroke were selected by clinical trial centers based on the diagnostic criteria of “Chinese Guidelines for the Diagnosis and Treatment of Acute Ischemic Stroke (2018)”.
Administration method: TBN (1400 mg) is dissolved in a sodium chloride injection bag (specification: 100 mL) and administered intravenously for 30 minutes. Dose of t-PA: 0.9 mg/Kg/dose; usage: added to physiological saline, 10% of the dose is administered via injected intravenous injection immediately within 1-2 minutes, and the remaining 90% is administered via intravenous drop infusion within 60 minutes. t-PA is administered only once on the first day of acute ischemic stroke. The medication schedule of TBN: D1-D7 administered twice a day, with an interval of 12 hours, for 7 consecutive days.

## Cc1nc(C)c(/C=[N+](\[O-])C(C)(C)C)nc1C [TBN, cis-2-methyl-N-[(3,5,6-trimethylpyrazin-2-)methylene]2-propamine oxide]
Clinical trial patients
  safety and tolerability: good safety and tolerability
30th day
  increase in percentage of patients with mRS 0-1 compared to the saline group: 6.6 percentage points
90th day
  increase in percentage of patients with mRS 0-1 compared to the saline group: 3.3 percentage points
